In patent US8784929B2 (priority 2007, dated 2014):

Assays:
αHL-WT [1] = molecular target: T1, αHL-WT (Staphylococcus aureus, UniProt P09616); type: biochemical, staphylococcal; conditions: pH 7
αHL-WT [2] = molecular target: T1, αHL-WT; conditions: cited from earlier work

T1 sequence (P09616 27-319 limits assumed): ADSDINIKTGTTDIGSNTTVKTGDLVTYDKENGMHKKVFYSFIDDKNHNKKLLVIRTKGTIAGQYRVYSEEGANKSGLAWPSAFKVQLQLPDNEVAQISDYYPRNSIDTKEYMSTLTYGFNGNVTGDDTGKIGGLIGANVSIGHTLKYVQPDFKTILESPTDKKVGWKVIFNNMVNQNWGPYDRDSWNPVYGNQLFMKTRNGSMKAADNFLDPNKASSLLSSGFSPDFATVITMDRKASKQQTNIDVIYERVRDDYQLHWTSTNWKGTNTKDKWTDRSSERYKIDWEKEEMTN

SMILES | current block on binding to αHL-WT (αHL-WT [1]) [%] | binding of β-cyclodextrin (in words) (αHL-WT [2])
COC[C@H]1O[C@@H]2O[C@H]3[C@H](OC)[C@@H](OC)[C@@H](O[C@H]4[C@H](OC)[C@@H](OC)[C@@H](O[C@H]5[C@H](OC)[C@@H](OC)[C@@H](O[C@H]6[C@H](OC)[C@@H](OC)[C@@H](O[C@H]7[C@H](OC)[C@@H](OC)[C@@H](O[C@H]8[C@H](OC)[C@@H](OC)[C@@H](O[C@H]1[C@H](OC)[C@H]2OC)O[C@@H]8COC)O[C@@H]7COC)O[C@@H]6COC)O[C@@H]5COC)O[C@@H]4COC)O[C@@H]3COC [hβCD, heptakis(2,3,6-tri-O-methyl)-β-cyclodextrin] | 95 | –
OC[C@H]1O[C@@H]2O[C@H]3[C@H](O)[C@@H](O)[C@@H](O[C@H]4[C@H](O)[C@@H](O)[C@@H](O[C@H]5[C@H](O)[C@@H](O)[C@@H](O[C@H]6[C@H](O)[C@@H](O)[C@@H](O[C@H]7[C@H](O)[C@@H](O)[C@@H](O[C@H]8[C@H](O)[C@@H](O)[C@@H](O[C@H]1[C@H](O)[C@H]2O)O[C@@H]8CO)O[C@@H]7CO)O[C@@H]6CO)O[C@@H]5CO)O[C@@H]4CO)O[C@@H]3CO [β-cyclodextrin] | – | does not bind β-cyclodextrin strongly
OC[C@H]1O[C@@H]2O[C@H]3[C@H](O)[C@@H](O)[C@@H](O[C@H]4[C@H](O)[C@@H](O)[C@@H](O[C@H]5[C@H](O)[C@@H](O)[C@@H](O[C@H]6[C@H](O)[C@@H](O)[C@@H](O[C@H]7[C@H](O)[C@@H](O)[C@@H](O[C@H]8[C@H](O)[C@@H](O)[C@@H](O[C@H]9[C@H](O)[C@@H](O)[C@@H](O[C@H]1[C@H](O)[C@H]2O)O[C@@H]9CO)O[C@@H]8CO)O[C@@H]7CO)O[C@@H]6CO)O[C@@H]5CO)O[C@@H]4CO)O[C@@H]3CO [γCD, γ-cyclodextrin] | 68 | –
